Test results: ChEMBL document CHEMBL1201862, “PubChem BioAssay data set” (2004)
The source made the active and inactive calls.

Tests used:
[1] = target: T1, Cannabinoid receptor 2 (Homo sapiens, UniProt P34972); test: SAR analysis of antagonists of the Cannabinoid Receptor 2 using an Image-Based Assay. [Related pubchem assays (depositor defined):AID2013, AID2026]; type: functional
[2] = target: T2, G-protein coupled receptor 35 (Homo sapiens, UniProt Q9HC97); test: SAR analysis of Antagonists of the GPR35 Receptor using an Image-Based Assay - Set 3. [Related pubchem assays (depositor defined):AID2013, AID2026]; type: functional
[3] = target: T3, G-protein coupled receptor 55 (Homo sapiens, UniProt Q9Y2T6); test: GPR55 antagonist potency of analogs, SAR follow-up, imaging, U2OS, beta-arrestin-GFP, LPI agonist, set 2 (AID 2820); type: functional
[4] = target: T1, Cannabinoid receptor 2; test: SAR analysis of agonists of the Cannabinoid Receptor 2 using an Image-Based Assay. [Related pubchem assays (depositor defined):AID2013, AID2026]; type: functional
[5] = target: T3, G-protein coupled receptor 55; test: GPR55 antagonists blocking LPI-driven arrestin recruitment, primary screen, imaging, U2OS, beta-arrestin-GFP, LPI agonist (AID 2013); type: functional;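 note: antagonist potency measured as reduced agonist-driven arrestin aggregation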
[6] = target: T2, G-protein coupled receptor 35; test: SAR analysis of Agonists of the GPR35 Receptor using an Image-Based Assay - Set 2. [Related pubchem assays (depositor defined):AID2013, AID2026]; type: functional
[7] = target: T4, Cannabinoid receptor 1 (Homo sapiens, UniProt P21554); test: SAR analysis of agonists of the Cannabinoid Receptor 1 using an Image-Based Assay - Set 2. [Related pubchem assays (depositor defined):AID2013, AID2026]; type: functional
[8] = target: T5, Corticotropin-releasing factor receptor 2/Corticotropin-releasing factor-binding protein (Homo sapiens, UniProt P24387+Q13324); test: Dose Response confirmation of uHTS hits for small molecule antagonists of the CRF-binding protein and CRF-R2 receptor complex.; type: functional; conditions: read-out: IC50_Mean
T5 sequence (Q13324 whole entry): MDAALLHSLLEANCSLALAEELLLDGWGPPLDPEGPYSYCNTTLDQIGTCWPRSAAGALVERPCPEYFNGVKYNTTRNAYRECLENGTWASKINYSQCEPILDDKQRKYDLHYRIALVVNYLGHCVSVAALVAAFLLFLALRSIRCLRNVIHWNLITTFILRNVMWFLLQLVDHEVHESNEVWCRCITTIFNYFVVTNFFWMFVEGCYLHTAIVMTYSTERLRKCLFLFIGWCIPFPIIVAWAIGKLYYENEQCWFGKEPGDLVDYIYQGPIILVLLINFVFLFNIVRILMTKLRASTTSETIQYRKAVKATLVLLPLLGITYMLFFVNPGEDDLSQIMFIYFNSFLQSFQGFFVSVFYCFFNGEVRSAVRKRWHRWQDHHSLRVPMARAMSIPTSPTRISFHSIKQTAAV
T5 sequence (P24387 whole entry): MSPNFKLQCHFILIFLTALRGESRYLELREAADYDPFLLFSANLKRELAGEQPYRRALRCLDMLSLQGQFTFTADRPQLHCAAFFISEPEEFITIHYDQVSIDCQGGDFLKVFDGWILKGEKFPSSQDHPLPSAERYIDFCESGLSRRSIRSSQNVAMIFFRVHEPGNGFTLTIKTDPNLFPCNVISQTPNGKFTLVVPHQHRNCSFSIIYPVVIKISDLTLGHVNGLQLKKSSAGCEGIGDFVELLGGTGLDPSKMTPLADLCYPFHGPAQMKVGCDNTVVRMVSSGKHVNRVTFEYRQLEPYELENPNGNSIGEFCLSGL

[9] = target: T5, Corticotropin-releasing factor receptor 2/Corticotropin-releasing factor-binding protein; test: activators of CRF receptor 2 with binding protein – uHTS hits, confirmation (AID 602473); type: functional; conditions: read-out: EC50_Mean
[10] = target: T4, Cannabinoid receptor 1; test: SAR analysis of antagonists of the Cannabinoid Receptor 1 using an Image-Based Assay - Set 2. [Related pubchem assays (depositor defined):AID2013, AID2026]; type: functional
[11] = target: T6, Replicative DNA helicase DnaB (Mycobacterium tuberculosis, UniProt P9WMR3); test: DnaB intein splicing inhibitors, dose response, biochemical, cell-free fluorescence (AID 449749); type: functional
T6 sequence (P9WMR3 whole entry): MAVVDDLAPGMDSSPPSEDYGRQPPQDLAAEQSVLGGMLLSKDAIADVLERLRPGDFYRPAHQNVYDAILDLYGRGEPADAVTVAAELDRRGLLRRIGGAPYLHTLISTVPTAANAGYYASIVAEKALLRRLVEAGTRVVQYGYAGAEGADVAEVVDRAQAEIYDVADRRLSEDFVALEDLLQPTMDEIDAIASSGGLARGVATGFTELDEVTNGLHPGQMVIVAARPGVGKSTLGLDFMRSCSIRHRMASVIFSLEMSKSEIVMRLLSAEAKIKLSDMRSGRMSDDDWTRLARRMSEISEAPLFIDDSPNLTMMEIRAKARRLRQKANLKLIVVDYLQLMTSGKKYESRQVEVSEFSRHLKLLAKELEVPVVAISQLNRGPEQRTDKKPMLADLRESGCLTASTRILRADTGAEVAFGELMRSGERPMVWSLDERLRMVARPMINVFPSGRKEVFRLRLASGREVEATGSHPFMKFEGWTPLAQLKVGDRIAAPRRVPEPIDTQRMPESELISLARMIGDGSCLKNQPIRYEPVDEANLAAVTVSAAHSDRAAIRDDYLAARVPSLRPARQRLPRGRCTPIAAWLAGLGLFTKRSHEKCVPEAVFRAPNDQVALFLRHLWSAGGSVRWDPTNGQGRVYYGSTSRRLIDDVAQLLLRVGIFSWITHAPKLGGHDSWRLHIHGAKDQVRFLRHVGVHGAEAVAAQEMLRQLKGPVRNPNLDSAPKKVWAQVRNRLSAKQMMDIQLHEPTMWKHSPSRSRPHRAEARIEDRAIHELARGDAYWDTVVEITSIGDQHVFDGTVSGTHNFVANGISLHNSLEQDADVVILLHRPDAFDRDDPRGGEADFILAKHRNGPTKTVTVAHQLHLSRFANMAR

[12] = target: Eukaryotic translation initiation factor 4E (Mus musculus, UniProt P63073); test: eIF4E–eIF4G protein interaction inhibitors, dose response, biochemical, TR-FRET (AID 855); type: functional;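 note: potency for disrupting eIF4E binding to eIF4GI seen as loss of FRET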
[13] = target: T7, Protein RecA (Mycobacterium tuberculosis, UniProt P9WHJ3); test: Fluorescence Cell-Free Homogeneous Dose Retest to Identify Inhibitors of RecA-Intein Splicing Activity. [Related pubchem assays (depositor defined):AID2097, AID2223, AID489010, AID492950]; type: functional
T7 sequence (P9WHJ3 whole entry): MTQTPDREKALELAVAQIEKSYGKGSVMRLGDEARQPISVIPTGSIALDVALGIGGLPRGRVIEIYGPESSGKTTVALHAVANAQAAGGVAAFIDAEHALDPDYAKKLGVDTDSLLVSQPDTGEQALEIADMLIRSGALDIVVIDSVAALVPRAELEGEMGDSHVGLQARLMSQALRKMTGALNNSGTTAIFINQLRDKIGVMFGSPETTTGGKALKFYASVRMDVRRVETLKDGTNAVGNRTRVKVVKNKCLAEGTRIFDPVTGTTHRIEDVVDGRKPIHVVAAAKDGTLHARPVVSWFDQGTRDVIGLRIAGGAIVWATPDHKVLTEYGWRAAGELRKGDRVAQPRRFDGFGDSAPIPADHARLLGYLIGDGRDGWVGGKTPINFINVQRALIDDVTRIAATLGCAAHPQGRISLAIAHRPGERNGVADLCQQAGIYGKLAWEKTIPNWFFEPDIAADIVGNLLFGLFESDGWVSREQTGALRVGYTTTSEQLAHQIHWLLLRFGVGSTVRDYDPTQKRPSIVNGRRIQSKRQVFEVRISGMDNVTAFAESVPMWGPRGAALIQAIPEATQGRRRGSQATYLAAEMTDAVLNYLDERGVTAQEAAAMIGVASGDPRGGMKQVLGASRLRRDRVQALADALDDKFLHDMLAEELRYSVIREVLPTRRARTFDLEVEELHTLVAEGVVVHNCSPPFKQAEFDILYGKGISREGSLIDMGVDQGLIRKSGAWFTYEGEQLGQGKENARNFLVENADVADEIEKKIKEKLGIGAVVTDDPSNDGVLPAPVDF

[14] = target: T8, Microphthalmia-associated transcription factor (Homo sapiens, UniProt O75030); test: TRPM1 promoter luciferase signal decrease, dose response, MITF inhibitor project, cell-based, SK-MEL-5, cherry-picked, set 3 (AID 493073); type: functional
T8 sequence (O75030 whole entry): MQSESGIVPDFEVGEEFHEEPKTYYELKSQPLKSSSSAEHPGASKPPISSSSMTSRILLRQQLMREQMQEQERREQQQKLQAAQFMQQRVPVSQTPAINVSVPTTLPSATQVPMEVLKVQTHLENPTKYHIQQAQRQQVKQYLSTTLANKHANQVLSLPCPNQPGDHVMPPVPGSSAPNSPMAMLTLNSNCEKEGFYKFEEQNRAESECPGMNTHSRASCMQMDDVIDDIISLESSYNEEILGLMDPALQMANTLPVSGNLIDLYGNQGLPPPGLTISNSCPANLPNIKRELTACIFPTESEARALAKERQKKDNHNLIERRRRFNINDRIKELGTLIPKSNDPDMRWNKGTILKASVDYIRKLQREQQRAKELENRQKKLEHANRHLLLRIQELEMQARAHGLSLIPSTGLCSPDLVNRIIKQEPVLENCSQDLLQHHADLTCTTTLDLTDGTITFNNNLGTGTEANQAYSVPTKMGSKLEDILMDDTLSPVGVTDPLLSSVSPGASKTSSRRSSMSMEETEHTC

[15] = Vero E6 cell cytotoxicity, dose response, cytotoxicity control for non-replicating M. tuberculosis project, secondary assay (AID 492998); type: functional, VeroE6; conditions: Vero C1008
[16] = cells; type: functional
[17] = THP-1 cell cytotoxicity, dose response, cytotoxicity control for non-replicating M. tuberculosis project (AID 489025); type: functional
[18] = HepG2 cell cytotoxicity, dose response, cytotoxicity control for non-replicating M. tuberculosis project (AID 489018); type: functional; conditions: Mycobacterium tuberculosis

T1 sequence (P34972 whole entry): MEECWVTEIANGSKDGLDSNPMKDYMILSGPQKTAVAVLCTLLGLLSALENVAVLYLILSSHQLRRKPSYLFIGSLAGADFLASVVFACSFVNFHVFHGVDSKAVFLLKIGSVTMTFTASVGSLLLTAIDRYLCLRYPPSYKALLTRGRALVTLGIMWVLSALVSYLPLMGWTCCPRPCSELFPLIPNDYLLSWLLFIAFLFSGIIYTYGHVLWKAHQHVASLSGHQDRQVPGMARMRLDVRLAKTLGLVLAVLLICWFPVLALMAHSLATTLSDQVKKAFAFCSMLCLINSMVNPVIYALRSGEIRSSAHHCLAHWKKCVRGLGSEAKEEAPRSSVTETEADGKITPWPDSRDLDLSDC
T2 sequence (Q9HC97 whole entry): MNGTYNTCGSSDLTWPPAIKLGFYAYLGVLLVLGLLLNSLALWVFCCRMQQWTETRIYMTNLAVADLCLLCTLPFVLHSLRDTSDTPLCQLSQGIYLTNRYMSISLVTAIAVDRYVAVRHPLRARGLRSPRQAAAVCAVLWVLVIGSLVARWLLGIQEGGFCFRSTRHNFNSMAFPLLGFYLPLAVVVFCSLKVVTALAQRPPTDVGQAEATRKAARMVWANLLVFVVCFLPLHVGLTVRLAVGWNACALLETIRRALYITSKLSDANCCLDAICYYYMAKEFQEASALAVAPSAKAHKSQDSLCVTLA
T4 sequence (P21554 whole entry): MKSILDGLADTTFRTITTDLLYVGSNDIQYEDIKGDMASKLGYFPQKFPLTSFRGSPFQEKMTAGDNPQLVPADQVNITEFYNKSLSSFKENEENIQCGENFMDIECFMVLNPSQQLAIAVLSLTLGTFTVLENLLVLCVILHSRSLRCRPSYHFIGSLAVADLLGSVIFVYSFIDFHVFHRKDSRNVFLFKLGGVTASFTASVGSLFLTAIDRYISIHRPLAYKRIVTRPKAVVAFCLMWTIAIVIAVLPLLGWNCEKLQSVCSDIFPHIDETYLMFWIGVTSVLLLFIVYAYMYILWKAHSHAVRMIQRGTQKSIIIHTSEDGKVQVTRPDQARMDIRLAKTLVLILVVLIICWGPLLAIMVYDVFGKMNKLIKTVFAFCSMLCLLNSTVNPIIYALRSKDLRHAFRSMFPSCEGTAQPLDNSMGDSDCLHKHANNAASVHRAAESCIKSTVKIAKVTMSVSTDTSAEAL
T3 sequence (Q9Y2T6 whole entry): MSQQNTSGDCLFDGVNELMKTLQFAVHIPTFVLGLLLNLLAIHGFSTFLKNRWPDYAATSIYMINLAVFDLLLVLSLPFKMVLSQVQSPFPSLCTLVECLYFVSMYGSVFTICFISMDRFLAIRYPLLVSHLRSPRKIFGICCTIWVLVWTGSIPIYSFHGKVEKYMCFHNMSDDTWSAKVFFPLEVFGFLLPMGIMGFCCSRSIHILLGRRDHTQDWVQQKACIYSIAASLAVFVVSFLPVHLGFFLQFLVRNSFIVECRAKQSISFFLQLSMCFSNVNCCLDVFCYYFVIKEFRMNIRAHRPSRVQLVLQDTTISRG
Chain of Eukaryotic translation initiation factor 4E (P63073 whole entry): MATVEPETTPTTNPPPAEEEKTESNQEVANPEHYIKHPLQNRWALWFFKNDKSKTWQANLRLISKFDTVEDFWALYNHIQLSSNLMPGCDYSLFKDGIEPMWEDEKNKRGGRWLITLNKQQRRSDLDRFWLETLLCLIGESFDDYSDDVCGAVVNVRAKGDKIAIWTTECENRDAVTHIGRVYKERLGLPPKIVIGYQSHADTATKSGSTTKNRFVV

In the case of `COC(=O)C1=C(N)c2c(F)cccc2C1(C#N)c1ccccc1` (stereo not drawn), the IC50 [1] is reported as > 32 µM (inactive), the IC50 [2] is reported as > 32 µM (inactive) and the IC50 [3] is reported as 928 nM (active). For the same compound, the EC50 [4] was > 32 µM (inactive), the IC50 [5] was 2.34 µM (active) and the EC50 [6] was > 32 µM (inactive). For the same compound, the EC50 [7] was > 32 µM (inactive), the IC50 [8] was > 47.1 µM (inactive) and the EC50 [9] was > 53 µM (inactive). For the same compound, the IC50 [10] was > 32 µM (inactive).

In the case of `N#Cc1c(Cl)c(Cl)c2nnc(-c3ccc(Br)cc3)n2c1Cl`, the AC50 [11] is reported as 10.2 µM (active), the IC50 [12] is reported as > 64 µM (inactive) and the EC50 [13] is reported as 9.3 µM (active).

For `Cc1ccc(NC(=O)c2ccc([N+](=O)[O-])o2)cc1S(=O)(=O)N1CCOCC1`, the AC50 [14] was 11.4 µM (active), the CC50 [15] was 6.5 µM (active) and the IC50 [16] was 18.4 µM (active). The CC50 [17] was 6.1 µM (active) and the CC50 [18] was 9.48 µM (active).
